Test system: P. acnes
Assay: Agar dilution method, growth of P. acnes and MIC, combinations with a fatty acid spike
Assay type: cell-based, Propionibacterium acnes
Set-up: key to Growth Index Plate 1 / Growth Index Plate 2 / Growth Index Plate 3 / Growth Index Avg: +++: confluent growth (comparable to control); ++: less confluent growth; +: marked reduction in growth to multiple tiny, single colonies; −: no growth present
Protocol: Several compounds including fatty acids such as DGLA, 15-OHEPA, and 15-HETrE were tested to determine their capacity to inhibit the growth of P. acnes. In an exemplary method, an agar dilution method was used to determine the minimum inhibitory concentration (MIC) of each tested compound. Briefly, the agar dilution method involved preparing a series of concentrations of each compound (e.g., nicotinamide, benzoyl peroxide, adapalene, metronidazole, DGLA, 15-OHEPA, and 15-HETrE) in a Reinforced Clostridial Agar (RCA) media that facilitates growth of P. acnes under anaerobic conditions. An inoculum of P. acnes was prepared by incubation of P. acnes for approximately seven days at 35-37° C. to achieve a ≧1.0 OD600 inoculum of P. acnes in RCM broth. A portion of this inoculum was then added to the surface of each plate as a 10 μL spot and incubated at 35-37° C. for 72 hours or more. Growth of P. acnes was then observed and compared to control plates in which no compound has been added, and positive inhibition plates prepared with erythromycin. […] The growth of P. acnes in the presence of nicotinamide, benzoyl peroxide, adapalene, metronidazole, DGLA, 15-OHEPA, and 15-HETrE was determined with varying concentrations of the compound (see, Table 2). Next, the MIC was determined as the concentration at which a marked reduction (+) occurs in the appearance of growth on the test plate (as per Clinical and Laboratory Standards Institute M11-A7).
The compounds tested singly in Example 1 were tested in combination with one another to determine the capacity of the combination to inhibit the growth of P. acnes. In an exemplary method, the MIC was determined for each of the combination as described in Example 1. Briefly, test combinations included DGLA with nicotinamide, benzoyl peroxide, adapalene, or metronidazole; 15-HETrE with nicotinamide, benzoyl peroxide, adapalene, or metronidazole; and 15-OHEPA with nicotinamide, benzoyl peroxide, adapalene, or metronidazole. The tables below show the growth of P. acnes in the presence of 0.4 or 1.0 mg/mL DGLA with varying concentrations of nicotinamide, benzoyl peroxide, adapalene, or metronidazole (Table 3); the growth of P. acnes in the presence of 0.01 or 0.05 mg/mL 15-HETrE with varying concentrations of nicotinamide, benzoyl peroxide, adapalene, or metronidazole (Table 5); and the growth of P. acnes in the presence of 0.5 or 0.1 mg/mL 15-OHEPA with varying concentrations of nicotinamide, benzoyl peroxide, adapalene, or metronidazole (Table 7).

[1] = compound at 0.2 mg/mL + 0.01 mg/mL 15-HETrE
[2] = compound at 0.2 mg/mL + 0.05 mg/mL 15-HETrE
[3] = compound at 0.2 mg/mL + 0.05 mg/mL 15-OHEPA
[4] = compound at 0.2 mg/mL + 0.1 mg/mL 15-OHEPA
[5] = compound at 0.2 mg/mL + 0.4 mg/mL dGLA
[6] = compound at 0.2 mg/mL + 1.0 mg/mL dGLA
[7] = compound at 0.4 mg/mL + 0.01 mg/mL 15-HETrE
[8] = compound at 0.4 mg/mL + 0.05 mg/mL 15-HETrE
[9] = compound at 0.4 mg/mL + 0.05 mg/mL 15-OHEPA
[10] = compound at 0.4 mg/mL + 0.1 mg/mL 15-OHEPA
[11] = compound at 0.4 mg/mL + 0.4 mg/mL dGLA
[12] = compound at 0.4 mg/mL + 1.0 mg/mL dGLA
[13] = compound at 0.6 mg/mL + 0.01 mg/mL 15-HETrE
[14] = compound at 0.6 mg/mL + 0.05 mg/mL 15-HETrE
[15] = compound at 0.6 mg/mL + 0.05 mg/mL 15-OHEPA
[16] = compound at 0.6 mg/mL + 0.1 mg/mL 15-OHEPA
[17] = compound at 0.6 mg/mL + 0.4 mg/mL dGLA
[18] = compound at 0.6 mg/mL + 1.0 mg/mL dGLA
[19] = compound at 0.8 mg/mL + 0.01 mg/mL 15-HETrE
[20] = compound at 0.8 mg/mL + 0.05 mg/mL 15-HETrE
[21] = compound at 0.8 mg/mL + 0.05 mg/mL 15-OHEPA
[22] = compound at 0.8 mg/mL + 0.1 mg/mL 15-OHEPA
[23] = compound at 0.8 mg/mL + 0.4 mg/mL dGLA
[24] = compound at 0.8 mg/mL + 1.0 mg/mL dGLA
[25] = compound at 1.0 mg/mL + 0.01 mg/mL 15-HETrE
[26] = compound at 1.0 mg/mL + 0.05 mg/mL 15-HETrE
[27] = compound at 1.0 mg/mL + 0.05 mg/mL 15-OHEPA
[28] = compound at 1.0 mg/mL + 0.1 mg/mL 15-OHEPA
[29] = compound at 1.0 mg/mL + 0.4 mg/mL dGLA
[30] = compound at 1.0 mg/mL + 1.0 mg/mL dGLA

## Cc1ncc([N+](=O)[O-])n1CCO [Metronidazole]
[1]
  Growth Index Avg: +++
  Growth Index Plate 1: +++
  Growth Index Plate 2: +++
  Growth Index Plate 3: +++
[2]
  Growth Index Avg: −
  Growth Index Plate 1: −
  Growth Index Plate 2: −
  Growth Index Plate 3: −
[3]
  Growth Index Avg: +++
  Growth Index Plate 1: +++
  Growth Index Plate 2: +++
  Growth Index Plate 3: +++
[4]
  Growth Index Avg: −
  Growth Index Plate 1: −
  Growth Index Plate 2: −
  Growth Index Plate 3: −
[5]
  Growth Index Avg: +++
  Growth Index Plate 1: +++
  Growth Index Plate 2: +++
  Growth Index Plate 3: +++
[6]
  Growth Index Avg: +++
  Growth Index Plate 1: +++
  Growth Index Plate 2: +++
  Growth Index Plate 3: +++
[7]
  Growth Index Avg: +++
  Growth Index Plate 1: +++
  Growth Index Plate 2: +++
  Growth Index Plate 3: +++
[8]
  Growth Index Avg: −
  Growth Index Plate 1: −
  Growth Index Plate 2: −
  Growth Index Plate 3: −
[9]
  Growth Index Avg: +++
  Growth Index Plate 1: +++
  Growth Index Plate 2: +++
  Growth Index Plate 3: +++
[10]
  Growth Index Avg: −
  Growth Index Plate 1: −
  Growth Index Plate 2: −
  Growth Index Plate 3: −
[11]
  Growth Index Avg: +++
  Growth Index Plate 1: +++
  Growth Index Plate 2: +++
  Growth Index Plate 3: +++
[12]
  Growth Index Avg: +++
  Growth Index Plate 1: +++
  Growth Index Plate 2: +++
  Growth Index Plate 3: +++
[13]
  Growth Index Avg: +++
  Growth Index Plate 1: +++
  Growth Index Plate 2: +++
  Growth Index Plate 3: +++
[14]
  Growth Index Avg: −
  Growth Index Plate 1: −
  Growth Index Plate 2: −
  Growth Index Plate 3: −
[15]
  Growth Index Avg: +++
  Growth Index Plate 1: +++
  Growth Index Plate 2: +++
  Growth Index Plate 3: +++
[16]
  Growth Index Avg: −
  Growth Index Plate 1: −
  Growth Index Plate 2: −
  Growth Index Plate 3: −
[17]
  Growth Index Avg: +++
  Growth Index Plate 1: +++
  Growth Index Plate 2: +++
  Growth Index Plate 3: +++
[18]
  Growth Index Avg: +++
  Growth Index Plate 1: +++
  Growth Index Plate 2: +++
  Growth Index Plate 3: +++
[19]
  Growth Index Avg: +++
  Growth Index Plate 1: +++
  Growth Index Plate 2: +++
  Growth Index Plate 3: +++
[20]
  Growth Index Avg: −
  Growth Index Plate 1: −
  Growth Index Plate 2: −
  Growth Index Plate 3: −
[21]
  Growth Index Avg: +++
  Growth Index Plate 1: +++
  Growth Index Plate 2: +++
  Growth Index Plate 3: ++
[22]
  Growth Index Avg: −
  Growth Index Plate 1: −
  Growth Index Plate 2: −
  Growth Index Plate 3: −
[23]
  Growth Index Avg: ++
  Growth Index Plate 1: +++
  Growth Index Plate 2: ++
  Growth Index Plate 3: ++
[24]
  Growth Index Avg: +++
  Growth Index Plate 1: +++
  Growth Index Plate 2: +++
  Growth Index Plate 3: ++
[25]
  Growth Index Avg: +++
  Growth Index Plate 1: +++
  Growth Index Plate 2: +++
  Growth Index Plate 3: +++
[26]
  Growth Index Avg: −
  Growth Index Plate 1: −
  Growth Index Plate 2: −
  Growth Index Plate 3: −
[27]
  Growth Index Avg: +++
  Growth Index Plate 1: +++
  Growth Index Plate 2: ++
  Growth Index Plate 3: +++
[28]
  Growth Index Avg: −
  Growth Index Plate 1: −
  Growth Index Plate 2: −
  Growth Index Plate 3: −
[29]
  Growth Index Avg: ++
  Growth Index Plate 1: ++
  Growth Index Plate 2: ++
  Growth Index Plate 3: ++
[30]
  Growth Index Avg: ++
  Growth Index Plate 1: ++
  Growth Index Plate 2: ++
  Growth Index Plate 3: ++
In combination with 15-HETrE
  growth of P. Acnes in combination with 15-HETrE, compared with 15-HETrE used alone: did not reduce the growth
In combination with 15-OHEPA
  growth of P. Acnes in combination with 15-OHEPA, compared with 15 OHEPA used alone: did not reduce the growth
In combination with DGLA
  growth of P. Acnes in combination with DGLA, compared with DGLA used alone: did not reduce the growth
